PubChem BioAssay AID1963962 (Molecular Pharmacology Branch, DTP, NCI, 2024)
Values joined by “and” are separate entries in the source; they are usually repeats but may differ in a detail not shown here. Equal entries are not always repeated. Values belong to the molecule of their own block, whether it stands above or below them.

Tested on: 967376-340-R-J2-PDC multicell spheroid viability
Test: Anticancer human tumor 967376-340-R-J2-PDC patient-derived colon adenocarcinoma cell line growth inhibition [PI3K]
Settings: for viability, T/C: stronger effect = lower value
Method in brief: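 High-throughput combination screen: PI3K inhibitors crossed with targeted small molecules on complex spheroids of tumor cells, HUVEC and MSCs at 37 degrees C, 5% CO2. Top concentration was at or near clinical Cmax (otherwise 10 microM), with half-log decrements.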

[1] = curve of first compound, second compound 0.0316 µM
[2] = curve of first compound, second compound 0.1 µM
[3] = curve of first compound, second compound 0.316 µM
[4] = curve of first compound, second compound 1 µM
[5] = curve of first compound, second compound 3.16 µM
[6] = curve of first compound, second compound 10 µM
[7] = second compound 0.0316 µM, first compound 0.0316 µM
[8] = second compound 0.0316 µM, first compound 0.1 µM
[9] = second compound 0.1 µM, first compound 0.0316 µM
[10] = second compound 0.1 µM, first compound 0.1 µM
[11] = second compound 0.316 µM, first compound 0.0316 µM
[12] = second compound 0.316 µM, first compound 0.1 µM
[13] = second compound 1 µM, first compound 0.0316 µM
[14] = second compound 1 µM, first compound 0.1 µM
[15] = second compound 3.16 µM, first compound 0.0316 µM
[16] = second compound 3.16 µM, first compound 0.1 µM
[17] = second compound 10 µM, first compound 0.0316 µM
[18] = second compound 10 µM, first compound 0.1 µM
[19] = second compound 0.0316 µM, first compound 0.316 µM
[20] = second compound 0.0316 µM, first compound 1 µM
[21] = second compound 0.0316 µM, first compound 3.16 µM
[22] = second compound 0.0316 µM, first compound 10 µM
[23] = second compound 0.1 µM, first compound 0.316 µM
[24] = second compound 0.1 µM, first compound 1 µM
[25] = second compound 0.1 µM, first compound 3.16 µM
[26] = second compound 0.1 µM, first compound 10 µM
[27] = second compound 0.316 µM, first compound 0.316 µM
[28] = second compound 0.316 µM, first compound 1 µM
[29] = second compound 0.316 µM, first compound 3.16 µM
[30] = second compound 0.316 µM, first compound 10 µM
[31] = second compound 1 µM, first compound 0.316 µM
[32] = second compound 1 µM, first compound 1 µM
[33] = second compound 1 µM, first compound 3.16 µM
[34] = second compound 1 µM, first compound 10 µM
[35] = second compound 3.16 µM, first compound 0.316 µM
[36] = second compound 3.16 µM, first compound 1 µM
[37] = second compound 3.16 µM, first compound 3.16 µM
[38] = second compound 3.16 µM, first compound 10 µM
[39] = second compound 10 µM, first compound 0.316 µM
[40] = second compound 10 µM, first compound 1 µM
[41] = second compound 10 µM, first compound 3.16 µM
[42] = second compound 10 µM, first compound 10 µM
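Note: spheroids exposed to agents for 7 days before read-out.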
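Throughout, for viability, T/C: luminescence used as surrogate of cell viability.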

SMILES: Cn1ncnc1[C@H]1c2n[nH]c(=O)c3cc(F)cc(c23)N[C@@H]1c1ccc(F)cc1 + CC(Nc1ncnc2nc[nH]c12)c1cc2cccc(Cl)c2c(=O)n1-c1ccccc1
- IC50 [1]: > 0.1 µM
- IC50 [2]: > 0.1 µM
- IC50 [3]: > 0.1 µM
- IC50 [4]: > 0.1 µM
- IC50 [5]: > 0.1 µM
- IC50 [6]: > 0.1 µM
- viability, T/C (second compound 0.0316 µM, first compound 0.000316 µM): 111%
- viability, T/C (second compound 0.0316 µM, first compound 0.001 µM): 114%
- viability, T/C (second compound 0.0316 µM, first compound 0.00316 µM): 90%
- viability, T/C (second compound 0.0316 µM, first compound 0.01 µM): 107%
- viability, T/C [7]: 84.7%
- viability, T/C [8]: 86.7%
- viability, T/C (second compound 0.1 µM, first compound 0.000316 µM): 103%
- viability, T/C (second compound 0.1 µM, first compound 0.001 µM): 94.2%
- viability, T/C (second compound 0.1 µM, first compound 0.00316 µM): 102%
- viability, T/C (second compound 0.1 µM, first compound 0.01 µM): 109%
- viability, T/C [9]: 93.4%
- viability, T/C [10]: 89.5%
- viability, T/C (second compound 0.316 µM, first compound 0.000316 µM): 83.5%
- viability, T/C (second compound 0.316 µM, first compound 0.001 µM): 96.5%
- viability, T/C (second compound 0.316 µM, first compound 0.00316 µM): 78.6%
- viability, T/C (second compound 0.316 µM, first compound 0.01 µM): 83.4%
- viability, T/C [11]: 102%
- viability, T/C [12]: 79.2%
- viability, T/C (second compound 1 µM, first compound 0.000316 µM): 122%
- viability, T/C (second compound 1 µM, first compound 0.001 µM): 84.7%
- viability, T/C (second compound 1 µM, first compound 0.00316 µM): 87.2%
- viability, T/C (second compound 1 µM, first compound 0.01 µM): 91.7%
- viability, T/C [13]: 108%
- viability, T/C [14]: 104%
- viability, T/C (second compound 3.16 µM, first compound 0.000316 µM): 73.7%
- viability, T/C (second compound 3.16 µM, first compound 0.001 µM): 73.8%
- viability, T/C (second compound 3.16 µM, first compound 0.00316 µM): 89.6%
- viability, T/C (second compound 3.16 µM, first compound 0.01 µM): 71.1%
- viability, T/C [15]: 83.3%
- viability, T/C [16]: 87.8%
- viability, T/C (second compound 10 µM, first compound 0.000316 µM): 89.5%
- viability, T/C (second compound 10 µM, first compound 0.001 µM): 102%
- viability, T/C (second compound 10 µM, first compound 0.00316 µM): 81.5%
- viability, T/C (second compound 10 µM, first compound 0.01 µM): 76.4%
- viability, T/C [17]: 78%
- viability, T/C [18]: 73.5%

SMILES: Cn1ncc(Cl)c1-c1cc(C(=O)NC(CN)Cc2cccc(F)c2)sc1Cl (centres undefined) + CC(Nc1ccc2c(c1)OCCn1cc(N3C(=O)OCC3C(F)F)nc1-2)C(N)=O
- IC50 (curve of first compound, second compound 0.00316 µM): > 10 µM
- IC50 (curve of first compound, second compound 0.01 µM): > 10 µM
- IC50 [1]: > 10 µM
- IC50 [2]: > 10 µM
- IC50 [3]: > 10 µM
- IC50 [4]: 4.19 µM
- viability, T/C (second compound 0.00316 µM, first compound 0.0316 µM): 102%
- viability, T/C (second compound 0.00316 µM, first compound 0.1 µM): 94.4%
- viability, T/C (second compound 0.00316 µM, first compound 0.316 µM): 86.6%
- viability, T/C (second compound 0.00316 µM, first compound 1 µM): 75%
- viability, T/C (second compound 0.00316 µM, first compound 3.16 µM): 71%
- viability, T/C (second compound 0.00316 µM, first compound 10 µM): 61.3%
- viability, T/C (second compound 0.01 µM, first compound 0.0316 µM): 92.3%
- viability, T/C (second compound 0.01 µM, first compound 0.1 µM): 93.3%
- viability, T/C (second compound 0.01 µM, first compound 0.316 µM): 90.8%
- viability, T/C (second compound 0.01 µM, first compound 1 µM): 67.1%
- viability, T/C (second compound 0.01 µM, first compound 3.16 µM): 67.8%
- viability, T/C (second compound 0.01 µM, first compound 10 µM): 71.3%
- viability, T/C [7]: 91.2%
- viability, T/C [8]: 98%
- viability, T/C [19]: 75.2%
- viability, T/C [20]: 83.2%
- viability, T/C [21]: 67.4%
- viability, T/C [22]: 55.8%
- viability, T/C [9]: 83.5%
- viability, T/C [10]: 72.5%
- viability, T/C [23]: 87.7%
- viability, T/C [24]: 65%
- viability, T/C [25]: 55.8%
- viability, T/C [26]: 57.8%
- viability, T/C [11]: 68%
- viability, T/C [12]: 66.9%
- viability, T/C [27]: 59.2%
- viability, T/C [28]: 67.8%
- viability, T/C [29]: 59.9%
- viability, T/C [30]: 45.9%
- viability, T/C [13]: 63.1%
- viability, T/C [14]: 49.3%
- viability, T/C [31]: 53.9%
- viability, T/C [32]: 68.1%
- viability, T/C [33]: 53.9%
- viability, T/C [34]: 38.5%

More lines, main results first:

- IC50 (curve of compound): > 10 µM
SMILES: CNC(=O)c1ccc(N2C(=S)N(c3ccc(C#N)c(C(F)(F)F)c3)C(=O)C2(C)C)cc1F
- viability, T/C (compound 0.1 µM): 94.8% (2×) and 84.5% and 88.3%
- viability, T/C (compound 0.316 µM): 96.1% [middle of 4 runs]
- viability, T/C (compound 1 µM): 87.2% [middle of 4 runs]
- viability, T/C (compound 10 µM): 102% [middle of 4 runs]

- IC50 (curve of compound): > 10 µM and 9.14 µM
SMILES: CCCS(=O)(=O)Nc1ccc(F)c(C(=O)c2c[nH]c3ncc(-c4ccc(Cl)cc4)cc23)c1F
- viability, T/C (compound 0.0316 µM): 102% [middle of 4 runs]
- viability, T/C (compound 0.1 µM): 87.8% [middle of 4 runs]
- viability, T/C (compound 0.316 µM): 94.6% [middle of 4 runs]
- viability, T/C (compound 3.16 µM): 104% [middle of 4 runs]
- viability, T/C (compound 10 µM): 56.4% [middle of 4 runs]

- IC50 [1]: > 10 µM
- IC50 [2]: > 10 µM
- IC50 [3]: > 10 µM
- IC50 [4]: > 10 µM
- IC50 [5]: > 10 µM
- IC50 [6]: > 10 µM
SMILES: C=CC(=O)N1CCN(c2nc(=O)n(-c3c(C)ccnc3C(C)C)c3nc(-c4c(O)cccc4F)c(F)cc23)C(C)C1 (centres undefined) + CC(Nc1ncnc2nc[nH]c12)c1cc2cccc(Cl)c2c(=O)n1-c1ccccc1
- viability, T/C [7]: 95.8%
- viability, T/C [8]: 104%
- viability, T/C [19]: 99.1%
- viability, T/C [20]: 102%
- viability, T/C [21]: 96.6%
- viability, T/C [22]: 108%
- viability, T/C [9]: 123%
- viability, T/C [10]: 108%
- viability, T/C [23]: 97.7%
- viability, T/C [24]: 94.2%
- viability, T/C [25]: 106%
- viability, T/C [26]: 104%
- viability, T/C [11]: 105%
- viability, T/C [12]: 107%
- viability, T/C [27]: 107%
- viability, T/C [28]: 104%
- viability, T/C [29]: 86.7%
- viability, T/C [30]: 94.8%
- viability, T/C [13]: 107%
- viability, T/C [14]: 98.3%
- viability, T/C [31]: 100%
- viability, T/C [32]: 97.8%
- viability, T/C [33]: 105%
- viability, T/C [34]: 76.3%
- viability, T/C [15]: 79.7%
- viability, T/C [16]: 91.6%
- viability, T/C [35]: 81.2%
- viability, T/C [36]: 98%
- viability, T/C [37]: 96.2%
- viability, T/C [38]: 86.6%
- viability, T/C [17]: 75.7%
- viability, T/C [18]: 83.9%
- viability, T/C [39]: 75.4%
- viability, T/C [40]: 78.7%
- viability, T/C [41]: 94.4%
- viability, T/C [42]: 91.9%

- IC50 [1]: > 10 µM
- IC50 [2]: > 10 µM
- IC50 [3]: > 10 µM
- IC50 [4]: > 10 µM
- IC50 [5]: > 10 µM
- IC50 [6]: < 0.0316 µM
SMILES: C=CC(=O)N1CCN(c2nc(=O)n(-c3c(C)ccnc3C(C)C)c3nc(-c4c(O)cccc4F)c(F)cc23)C(C)C1 (centres undefined) + Cc1nc(NC(=O)N2CCCC2C(N)=O)sc1-c1ccnc(C(C)(C)C(F)(F)F)c1
- viability, T/C [7]: 85.5%
- viability, T/C [8]: 85.2%
- viability, T/C [19]: 86.6%
- viability, T/C [20]: 84.6%
- viability, T/C [21]: 91.7%
- viability, T/C [22]: 102%
- viability, T/C [9]: 91.9%
- viability, T/C [10]: 85.8%
- viability, T/C [23]: 75.6%
- viability, T/C [24]: 84.6%
- viability, T/C [25]: 100%
- viability, T/C [26]: 74%
- viability, T/C [11]: 73.3%
- viability, T/C [12]: 74.5%
- viability, T/C [27]: 62.5%
- viability, T/C [28]: 94%
- viability, T/C [29]: 91.3%
- viability, T/C [30]: 69.8%
- viability, T/C [13]: 65.5%
- viability, T/C [14]: 65.7%
- viability, T/C [31]: 57.3%
- viability, T/C [32]: 66.6%
- viability, T/C [33]: 66.1%
- viability, T/C [34]: 76.5%
- viability, T/C [15]: 61%
- viability, T/C [16]: 52.9%
- viability, T/C [35]: 64.4%
- viability, T/C [36]: 56.8%
- viability, T/C [37]: 77.7%
- viability, T/C [38]: 53.3%
- viability, T/C [17]: 46.9%
- viability, T/C [18]: 44.7%
- viability, T/C [39]: 44.9%
- viability, T/C [40]: 56.3%
- viability, T/C [41]: 48.7%
- viability, T/C [42]: 42%
